Structures are written as SMILES.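 Grown in 96-well plates, cells were treated for 48 hours with each compound at five concentrations. Insufficient inhibition: endpoint recorded as highest concentration tested. Here, GI50 denotes the concentration required for 50% inhibition of growth. TGI marks complete inhibition of growth.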 Some results are limits rather than exact numbers.

Holding throughout (assay): NCI-60 cell line screen, 48 h
The test system of assay [1] is A498 renal.
Assay [2] relates to HCC-2998 colon.
Assay [3] concerns HS 578T breast.
The test system of assay [4] is KM12 colon.
Assay [5] concerns LOX IMVI melanoma.
In assay [6] the test system is MALME-3M melanoma.
Assay [7] deals with OVCAR-3 ovarian.
The test system of assay [8] is TK-10 renal.
Assay [9] relates to UACC-257 melanoma.
For assay [10], the system named is UACC-62 melanoma.

In the case of `COc1ccc(C2=C(c3cc(OC)c(OC)c(OC)c3)C(=O)CC2)cc1`, the GI50 in [1] was 0.0403 µM; in assay [2], 0.244 µM; in assay [3] it was 0.0827 µM; in [4] it was 0.0719 µM; in assay [5], 0.441 µM; in assay [6] it was over 100 µM. For the same compound, the GI50 in assay [7] was 0.0598 µM; in assay [8], 12.3 µM; in assay [10] it was 0.0812 µM. For the same compound, the TGI in assay [1] was 0.429 µM; in assay [2], 18.2 µM; in assay [5], over 100 µM; in [6], over 100 µM; in assay [7], 0.242 µM; in assay [8], over 100 µM. Also, the TGI in [9] and in assay [10] was over 100 µM in each case.
Consider `CCCN(CCC)CCCNC(=O)c1cc2c(-c3ccc(OC)c(OC)c3)nn(C)c2s1`, for which the GI50 in [1] is 3.06 µM; in assay [2], 18.8 µM; in assay [3] it was 22.9 µM; in [4], 26 µM; in [5] it was 15.1 µM; in assay [6], 18.4 µM. The GI50 is 21.5 µM in assay [7], 40.9 µM in assay [8], 17.3 µM in [9] and 16.9 µM in assay [10]. Besides, the TGI in assay [1] was over 100 µM; in assay [2], 37.7 µM; in assay [3], over 100 µM; in [4] it was over 100 µM; in [5] it was 31 µM; in [6], 35.8 µM. For the same compound, the TGI in assay [7] is over 100 µM; in assay [8], over 100 µM; in [9], 34.4 µM; in [10], 33 µM.
With `C[C@H]1CC[C@@H]2[C@@H](C)[C@H]3[C@H](C[C@H]4[C@@H]5CC=C6C[C@@H](O)CC[C@]6(C)[C@H]5C[C@H](O)[C@]34C)N2C1`, the TGI in assay [1], in [2], in assay [3], in assay [4], in [5] and in assay [6] was over 100 µM throughout. Besides, the TGI in assay [7], in [8], in assay [9] and in assay [10] was over 100 µM each time.
Take `C#COc1cccc(Nc2ncnc3ncc(NC(=O)CCl)cc23)c1`: the GI50 in [1] was over 62.5 µM; in [2], over 62.5 µM; in assay [3], over 62.5 µM; in assay [4] it was over 28.4 µM; in assay [6], over 23.7 µM; in [7], over 25 µM. The GI50 was 62 µM in assay [8], over 62.5 µM in assay [9] and over 36.1 µM in assay [10]. Moreover, the TGI is over 62.5 µM in assay [1]; over 62.5 µM in assay [2]; over 62.5 µM in assay [3]; over 62.5 µM in [4]; over 28 µM in assay [5]; over 38 µM in assay [6]. Moreover, the TGI in assay [7], in assay [8], in [9] and in assay [10] was over 62.5 µM throughout.
Take `Clc1ccc(-c2nn3ncccc3c2-c2ccnc(Nc3ccccc3)n2)cc1`: the GI50 in [1] is 4.42 µM; in assay [2], 10.9 µM; in assay [3], 6.4 µM; in assay [4] it was 9.03 µM; in assay [5], 9.23 µM; in [6], over 20.6 µM. The GI50 in [7] was 5.92 µM; in assay [8] it was 7.43 µM; in assay [9], over 15.1 µM; in assay [10], over 13 µM. Further, the TGI in assay [1] was over 23.3 µM; in assay [2] it was over 25 µM; in assay [3], over 22 µM; in assay [4] it was over 25 µM; in assay [5] it was over 25 µM; in [6] it was over 25 µM. Further, the TGI is over 25 µM in assay [7], over 20.4 µM in assay [8], over 25 µM in assay [9] and over 25 µM in assay [10].
For `COc1cccc(C2C3=C(COC3=O)N(CCO)c3cc4c(cc32)OCCO4)c1` (centres undefined), the GI50 in assay [1] was 0.0264 µM; in [2] it was 0.0957 µM; in [3], 0.114 µM; in [4] it was 0.0798 µM; in assay [5] it was 0.288 µM; in assay [6], 49.1 µM. Moreover, the figures for the GI50 in [7], in assay [8] and in assay [9] were 0.0878 µM, 0.891 µM and 0.0467 µM, respectively. In addition, the TGI in [1] was 0.276 µM; in assay [2] it was 0.242 µM; in [3] it was 22.1 µM; in [4], 1.85 µM; in assay [5] it was over 50 µM; in [6] it was over 50 µM. The TGI in assay [7] was 0.254 µM; in assay [9], over 50 µM; in assay [10] it was over 50 µM.
Consider `N#Cc1c(NC(=O)CN2CCOCC2)sc2c1CCCC2`, for which the GI50 in assay [1] is 3.2 µM; in assay [2], over 25 µM; in assay [3] it was over 25 µM; in [4], over 25 µM; in assay [5] it was over 25 µM; in assay [6] it was over 25 µM. Further, the GI50 in [7], in [8], in [9] and in assay [10] was over 25 µM throughout. Besides, the TGI in assay [1], in [2], in [3], in assay [4], in [5] and in assay [6] was over 25 µM in each case. Further, the TGI in assay [7], in assay [8], in assay [9] and in assay [10] was over 25 µM in each case.
Consider `N#Cc1c(-c2ccccc2)cc(-c2ccccc2)n(CCCCC(=O)NO)c1=O`, for which the GI50 in assay [1] was 1.25 µM; in assay [2], 2.65 µM; in assay [3], 2.03 µM; in assay [4], 2.8 µM; in assay [5] it was 1.71 µM; in assay [6], 1.25 µM. The GI50 was 2.26 µM in assay [7], 2.5 µM in assay [8], 2.15 µM in assay [9] and 2.2 µM in assay [10]. For the same compound, the TGI was 3.55 µM in [1]; 10.8 µM in [2]; 8.18 µM in [3]; 13.6 µM in assay [4]; 3.22 µM in [5]; 13.3 µM in assay [6]. In addition, the TGI in assay [7] was found to be 7.49 µM; in assay [8], 11.2 µM; in assay [9] it was 12.4 µM; in assay [10], 6.02 µM.
In the case of `Oc1cc(O)c2c(=S)cc(-c3ccc(Cl)cc3)oc2c1`, the GI50 was 1.22 µM in [1]; 1.7 µM in assay [2]; 3.56 µM in assay [3]; 2.08 µM in assay [4]; 2.92 µM in [5]; 2.01 µM in [6]. The GI50 in [7] is 1.52 µM; in assay [8], 4.08 µM; in assay [9], 2.75 µM; in assay [10], 3.01 µM. For the same compound, the TGI in assay [1] was determined as 11.7 µM; in assay [2], 14.5 µM; in assay [3] it was 40.3 µM; in assay [4] it was 11.5 µM; in assay [5], 11.6 µM; in assay [6], 6.71 µM. Further, the TGI turned out to be 8.94 µM in [7], 19.1 µM in [8], 7.96 µM in assay [9] and 14.2 µM in assay [10].
Take `CCOC(=O)c1c(C)n2c(=O)cc(C)c3c(OC(C)=O)c(OC(C)=O)cc1c32`: the GI50 in [1] is 14 µM; in [2], 2.45 µM; in [3] it was 4.52 µM; in assay [4], 5.54 µM; in assay [5] it was 4.52 µM; in [6], 9.93 µM. Also, the GI50 in [7] is 3.49 µM; in [8] it was 15 µM; in [9] it was 7.64 µM; in assay [10], 4.22 µM. In addition, the TGI is 52.1 µM in [1]; 15.8 µM in assay [2]; over 65.2 µM in [3]; 29.4 µM in assay [4]; 22.9 µM in [5]; 35.5 µM in assay [6]. The TGI in assay [7] is over 62.7 µM; in assay [8], over 100 µM; in assay [9], 25.3 µM; in assay [10], 14.4 µM.
With `O=C(c1cccs1)c1c(C(F)(F)F)n([O-])c2ccc(F)cc2[n+]1=O`, the GI50 in assay [1] is 1.95 µM; in assay [2], 0.8 µM; in assay [3], 1.67 µM; in assay [4] it was 0.163 µM; in assay [5], 0.971 µM; in assay [6], 0.669 µM. For the same compound, the GI50 in [7] is 0.793 µM; in assay [8], 1.41 µM; in assay [9], 1.53 µM; in assay [10], 1.41 µM. Also, the TGI in assay [1] came to 4.08 µM; in assay [2] it was 1.98 µM; in assay [3], 6.71 µM; in [4] it was 0.35 µM; in assay [5], 2.67 µM; in [6], 2.25 µM. Moreover, the TGI in assay [7] stood at 2.35 µM; in [8] it was 3.06 µM; in assay [9] it was 2.91 µM; in assay [10], 2.81 µM.
As to `COC(=O)Nc1nc2cc3c(cc2s1)OCCO3`, the GI50 in assay [1], in [2], in assay [3], in [4], in assay [5] and in [6] was over 50 µM each time. Also, the GI50 in assay [7], in assay [8], in assay [9] and in assay [10] was over 50 µM each time. The TGI in [1], in assay [2], in assay [3], in [4], in assay [5] and in [6] was over 50 µM throughout. The TGI in assay [7], in assay [8], in assay [9] and in assay [10] was over 50 µM in each case.
As for `CC1OC(OC2CC(O)C3(CO)C4C(O)CC5(C)C(C6=CC(=O)OC6)CCC5(O)C4CCC3(O)C2)C(O)C(O)C1O` (centres undefined), the GI50 was under 0.0183 µM in assay [1]; 0.0606 µM in assay [2]; under 0.0155 µM in [3]; 0.0249 µM in assay [4]; under 0.0196 µM in [5]; under 0.0131 µM in assay [6]. Moreover, the GI50 in assay [7] was under 0.013 µM; in assay [8], under 0.0105 µM; in assay [9] it was 0.0237 µM; in assay [10] it was 0.0381 µM. The TGI in [1] was found to be 0.102 µM; in [2], 0.204 µM; in assay [3], 0.304 µM; in assay [4] it was 0.217 µM; in assay [5], 0.0457 µM; in assay [6], 0.0172 µM. Further, the TGI in [7] was under 0.0171 µM; in [8], 0.0323 µM; in assay [9], 0.105 µM; in [10] it was 0.173 µM.
For the compound `CC(=O)OC1CCC2(C)C(=CCC3C2CCC2(C)C(C(C)C(=O)O)CCC32)C1` (centres undefined), the TGI in assay [1], in assay [2], in [3], in assay [4], in assay [5] and in assay [6] was over 100 µM in each case. The TGI in [7], in assay [8], in assay [9] and in assay [10] was over 100 µM throughout.
With `COC(=O)[C@H](CC(C)C)NC(=O)NC(=O)NC(=O)CI`, the GI50 was 17.7 µM in assay [1]; 11.4 µM in assay [2]; 24.3 µM in [3]; 15.8 µM in [4]; 1.64 µM in assay [5]; 1.62 µM in [6]. Besides, the GI50 in [7] is 1.99 µM; in assay [8], 1.72 µM; in assay [9] it was 7.76 µM; in assay [10] it was 13.4 µM. Further, the TGI in assay [1] was 32.6 µM; in assay [2] it was 24.2 µM; in assay [3], 77.4 µM; in assay [4], 32.8 µM; in assay [5], 3.24 µM; in assay [6], 3.43 µM. The TGI came out at 3.51 µM in assay [7], 3.62 µM in assay [8], 20.3 µM in [9] and 28.2 µM in assay [10].
On to `O=C(O)CCCCn1cnc2c(=S)nc[nH]c21`, for which the TGI in assay [1], in assay [2], in assay [3], in assay [4], in [5] and in assay [6] was over 100 µM in each case. Moreover, the TGI in assay [7], in [8], in assay [9] and in assay [10] was over 100 µM each time.

The values above are taken from PubChem BioAssay (NCI).
